The values that follow come from patent US9012443B2 (Amgen Inc., priority 2011, dated 2015).

Common to all, as to type: cell-based
The target in series [1] is T1, Nav 1.7 (Homo sapiens (Human), UniProt Q15858). Put plainly: Nav 1.7 IWQ in vitro assay (IonWorks Quattro population patch-clamp). Conditions: 293 cells stably transfected with Nav 1.7; first part of table; read-out: Nav 1.7 IWQ IC50. In a few lines: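 HEK293 cells stably expressing Nav 1.7, recorded by automated population patch-clamp with a train of depolarizations producing increasing inactivation. Single compound concentration added during 3–8 min unclamped period, then same protocol repeated. Leak-corrected current at 26th pulse to −20 mV gave percent block (duplicate); IC50 fitted from concentration–block curves.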
A general note: The patch-clamp technique gives a direct electrical read-out from membranes.

For another series, the target named is Nav 1.5 (Homo sapiens (Human), UniProt Q14524). The experiment in a line: Nav 1.5 in vitro PX assay (PatchXpress whole cell voltage clamp). Conditions: 293 cells stably transfected with Nav 1.5. In a few lines: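 HEK293 cells stably expressing Nav 1.5, whole-cell voltage clamp held at −50 mV; 20 msec test pulses to 0 mV at 0.1 Hz, each preceded by a step to −120 mV.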

For series [2], the target named is T1, Nav 1.7. Put plainly: Nav 1.7 in vitro PX assay (PatchXpress whole cell voltage clamp). As to conditions: 293 cells, human Nav1.7, partially inactivated state; read-out: Nav1.7 PX IC50 IP. In outline:
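HEK293 cells stably expressing human Nav1.7, whole-cell voltage clamp on PatchXpress, held at potential giving 20–50% inactivation; current elicited by 20 msec pulse to −10 mV.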

Where [3] appears, read: first part of table, read-out: Nav 1.5 PX IC50.
[4] abbreviates: second part of table, read-out: Nav1.5 PX IC50.

Where two headings read alike, the source gives them in different places.

Nav 1.5, sequence (Q14524 whole entry): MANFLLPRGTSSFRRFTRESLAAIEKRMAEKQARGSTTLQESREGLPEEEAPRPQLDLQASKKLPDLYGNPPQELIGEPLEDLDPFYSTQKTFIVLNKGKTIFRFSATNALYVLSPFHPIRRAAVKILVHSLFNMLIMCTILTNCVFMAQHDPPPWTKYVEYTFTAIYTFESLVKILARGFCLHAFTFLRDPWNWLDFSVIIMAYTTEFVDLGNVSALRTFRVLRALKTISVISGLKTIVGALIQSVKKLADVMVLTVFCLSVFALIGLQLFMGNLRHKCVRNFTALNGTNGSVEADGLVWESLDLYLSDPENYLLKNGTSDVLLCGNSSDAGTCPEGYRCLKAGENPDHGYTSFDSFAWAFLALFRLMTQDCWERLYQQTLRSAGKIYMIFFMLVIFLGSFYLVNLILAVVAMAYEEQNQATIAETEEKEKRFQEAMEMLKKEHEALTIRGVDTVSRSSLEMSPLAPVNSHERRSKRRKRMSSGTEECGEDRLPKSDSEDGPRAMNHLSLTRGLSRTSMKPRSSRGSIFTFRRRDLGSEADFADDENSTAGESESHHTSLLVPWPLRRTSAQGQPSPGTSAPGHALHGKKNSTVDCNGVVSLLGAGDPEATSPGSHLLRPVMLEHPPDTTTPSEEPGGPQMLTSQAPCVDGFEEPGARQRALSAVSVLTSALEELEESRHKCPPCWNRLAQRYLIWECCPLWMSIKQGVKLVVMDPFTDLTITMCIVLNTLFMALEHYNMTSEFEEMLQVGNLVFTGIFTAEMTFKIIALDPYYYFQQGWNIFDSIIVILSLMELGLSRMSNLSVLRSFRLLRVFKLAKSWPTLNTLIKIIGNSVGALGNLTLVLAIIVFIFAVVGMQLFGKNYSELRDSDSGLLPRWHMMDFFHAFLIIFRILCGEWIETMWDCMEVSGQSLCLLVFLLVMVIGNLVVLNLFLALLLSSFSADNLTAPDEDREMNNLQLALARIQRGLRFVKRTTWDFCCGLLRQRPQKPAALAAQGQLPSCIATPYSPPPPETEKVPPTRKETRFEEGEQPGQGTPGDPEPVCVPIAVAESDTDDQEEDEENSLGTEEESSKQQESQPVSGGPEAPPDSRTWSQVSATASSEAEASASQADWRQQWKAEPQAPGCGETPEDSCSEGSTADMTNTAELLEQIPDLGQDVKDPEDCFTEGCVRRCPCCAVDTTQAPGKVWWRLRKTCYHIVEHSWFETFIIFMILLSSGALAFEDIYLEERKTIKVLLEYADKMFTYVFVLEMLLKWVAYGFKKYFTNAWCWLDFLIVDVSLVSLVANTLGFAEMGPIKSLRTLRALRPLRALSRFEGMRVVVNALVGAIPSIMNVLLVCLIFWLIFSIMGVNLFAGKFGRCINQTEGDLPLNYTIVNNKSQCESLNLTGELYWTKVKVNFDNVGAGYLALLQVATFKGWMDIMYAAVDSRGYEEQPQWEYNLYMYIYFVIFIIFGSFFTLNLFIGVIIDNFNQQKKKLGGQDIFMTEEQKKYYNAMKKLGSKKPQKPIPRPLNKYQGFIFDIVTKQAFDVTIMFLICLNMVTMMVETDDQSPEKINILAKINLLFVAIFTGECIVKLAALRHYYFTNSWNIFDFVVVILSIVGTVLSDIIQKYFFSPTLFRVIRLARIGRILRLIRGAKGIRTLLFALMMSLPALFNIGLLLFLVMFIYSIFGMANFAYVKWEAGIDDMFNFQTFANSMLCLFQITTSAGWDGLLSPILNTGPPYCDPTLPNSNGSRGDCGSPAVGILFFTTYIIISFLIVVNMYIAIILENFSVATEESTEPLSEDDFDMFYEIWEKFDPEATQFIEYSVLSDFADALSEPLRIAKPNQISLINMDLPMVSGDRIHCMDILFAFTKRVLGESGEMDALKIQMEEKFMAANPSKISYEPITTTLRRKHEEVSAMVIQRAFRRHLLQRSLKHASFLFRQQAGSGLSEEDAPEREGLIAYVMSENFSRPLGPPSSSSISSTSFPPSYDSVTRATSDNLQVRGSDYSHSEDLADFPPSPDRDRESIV
T1 sequence (Q15858 whole entry): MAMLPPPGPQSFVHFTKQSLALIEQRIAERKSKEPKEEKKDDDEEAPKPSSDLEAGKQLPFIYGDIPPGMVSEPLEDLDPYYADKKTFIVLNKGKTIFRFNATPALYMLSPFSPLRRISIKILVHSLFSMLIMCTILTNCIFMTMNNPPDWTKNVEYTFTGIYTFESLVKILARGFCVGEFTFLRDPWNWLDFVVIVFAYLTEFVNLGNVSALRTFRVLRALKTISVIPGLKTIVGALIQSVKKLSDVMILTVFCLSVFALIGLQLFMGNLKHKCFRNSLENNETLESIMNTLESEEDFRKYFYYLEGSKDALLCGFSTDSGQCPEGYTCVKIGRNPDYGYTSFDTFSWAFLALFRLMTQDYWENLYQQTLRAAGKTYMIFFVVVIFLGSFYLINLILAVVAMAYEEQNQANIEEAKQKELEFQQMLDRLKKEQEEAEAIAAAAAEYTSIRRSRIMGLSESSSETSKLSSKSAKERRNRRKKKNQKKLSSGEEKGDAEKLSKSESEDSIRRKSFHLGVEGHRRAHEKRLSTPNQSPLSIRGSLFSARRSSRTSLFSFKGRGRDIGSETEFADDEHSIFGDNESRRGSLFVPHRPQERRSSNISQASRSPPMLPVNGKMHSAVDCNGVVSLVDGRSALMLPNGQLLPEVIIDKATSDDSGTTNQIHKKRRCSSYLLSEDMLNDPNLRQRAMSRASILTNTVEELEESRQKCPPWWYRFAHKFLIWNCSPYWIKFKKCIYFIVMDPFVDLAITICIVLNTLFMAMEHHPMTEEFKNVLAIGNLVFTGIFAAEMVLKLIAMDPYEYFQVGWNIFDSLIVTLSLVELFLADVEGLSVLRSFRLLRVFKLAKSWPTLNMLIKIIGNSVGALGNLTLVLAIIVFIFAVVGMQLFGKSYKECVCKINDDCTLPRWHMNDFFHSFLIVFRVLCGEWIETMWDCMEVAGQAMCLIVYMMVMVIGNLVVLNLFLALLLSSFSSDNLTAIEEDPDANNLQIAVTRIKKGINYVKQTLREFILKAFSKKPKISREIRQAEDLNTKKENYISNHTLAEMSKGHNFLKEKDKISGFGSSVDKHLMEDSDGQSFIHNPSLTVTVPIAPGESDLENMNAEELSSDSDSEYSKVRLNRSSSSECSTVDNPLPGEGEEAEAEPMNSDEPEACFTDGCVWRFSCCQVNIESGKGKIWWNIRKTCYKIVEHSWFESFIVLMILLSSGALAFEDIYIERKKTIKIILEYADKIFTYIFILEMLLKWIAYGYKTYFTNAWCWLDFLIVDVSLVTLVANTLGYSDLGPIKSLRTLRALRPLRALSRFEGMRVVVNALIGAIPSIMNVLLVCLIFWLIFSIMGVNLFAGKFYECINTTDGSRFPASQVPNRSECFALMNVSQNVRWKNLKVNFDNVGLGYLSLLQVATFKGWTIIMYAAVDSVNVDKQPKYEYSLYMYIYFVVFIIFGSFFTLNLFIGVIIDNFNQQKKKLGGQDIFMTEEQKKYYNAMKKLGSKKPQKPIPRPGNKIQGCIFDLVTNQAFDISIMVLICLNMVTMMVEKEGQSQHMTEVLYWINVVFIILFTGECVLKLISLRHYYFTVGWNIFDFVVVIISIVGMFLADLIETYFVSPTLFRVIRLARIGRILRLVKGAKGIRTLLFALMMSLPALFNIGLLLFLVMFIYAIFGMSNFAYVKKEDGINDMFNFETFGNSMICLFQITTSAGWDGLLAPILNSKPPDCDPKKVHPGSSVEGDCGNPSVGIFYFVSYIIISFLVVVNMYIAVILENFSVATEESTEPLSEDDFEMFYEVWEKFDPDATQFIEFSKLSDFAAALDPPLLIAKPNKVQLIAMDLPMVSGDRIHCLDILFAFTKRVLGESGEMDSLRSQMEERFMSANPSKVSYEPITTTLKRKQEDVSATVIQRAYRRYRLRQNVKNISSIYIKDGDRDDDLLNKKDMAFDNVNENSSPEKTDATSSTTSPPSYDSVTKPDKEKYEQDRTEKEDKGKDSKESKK

`Cn1nccc1-c1cc(C(F)(F)F)ccc1-c1cccc2cc(S(=O)(=O)Nc3nccs3)ccc12` [Example 47]: the values for the IC50 on Nav 1.7 [1] and at Nav 1.5 (setting [3]) were 270 nM and 5820 nM, respectively.

Turning to `Cc1cc(C(F)(F)F)ccc1-c1cccc2cc(S(=O)(=O)Nc3ncns3)ccc12` [Example 11], the figures for the IC50 on Nav 1.7 [1] and on Nav 1.5 (setting [3]) were 80 nM and 5070 nM, respectively.

Consider `Cn1nccc1-c1cc(Cl)ccc1-c1cccc2cc(S(=O)(=O)Nc3ncns3)ccc12` [Example 25], for which the IC50 at Nav 1.7 [1] was 50 nM; on Nav 1.5 (setting [3]), over 30000 nM.

With `O=S(=O)(Nc1ncns1)c1ccc2c(-c3ccccc3Cl)cccc2c1` [Example 8], the IC50 on Nav 1.7 [1] was 200 nM; on Nav 1.5 (setting [3]) it was 21300 nM.

Take `O=S(=O)(Nc1ncns1)c1ccc2c(-c3ccccc3)cccc2c1` [Example 9]: the IC50 at Nav 1.7 [1] came out at 460 nM; on Nav 1.5 (setting [3]), 23800 nM.

On to `O=S(=O)(Nc1ncns1)c1ccc2c(-c3ccc(Cl)cc3-c3cn[nH]c3)cccc2c1` [Example 27, 5-(4-CHLORO-2-(1H-PYRAZOL-4-YL)PHENYL)-N-(1,2,4-THIADIAZOL-5-YL)NAPHTHALENE-2 SULFONAMIDE], for which the IC50 at Nav 1.7 [1] is 20 nM; at Nav 1.5 (setting [3]) it was over 30000 nM.

As for `O=S(=O)(Nc1ncns1)c1ccc2c(-c3ccc(F)cc3Br)cccc2c1` [Example 3], the results for the IC50 on Nav 1.7 [1] and at Nav 1.5 (setting [3]) were 90 nM and 24200 nM, respectively.

For the compound `O=S(=O)(Nc1ncns1)c1ccc2c(-c3ccc(C(F)(F)F)cc3Cl)cccc2c1` [Example 29], the values for the half-maximal inhibitory concentration (IC50) on Nav 1.7 [1] and at Nav 1.5 (setting [3]) were 50 nM and over 30000 nM, respectively.

Take `Cn1nccc1-c1cc(C(F)(F)F)ccc1-c1nccc2cc(S(=O)(=O)Nc3ncns3)ccc12` [Example 54, 1-(2-(1-METHYL-1H-PYRAZOL-5-YL)-4-(TRIFLUOROMETHYL)PHENYL)-N-(1,2,4-THIADIAZOL-5-YL)ISOQUINOLINE-6-SULFONAMIDE]: the IC50 is 40 nM on Nav 1.7 [1] and over 30000 nM at Nav 1.5 (setting [3]).

Consider `O=S(=O)(Nc1ncns1)c1ccc2c(-c3ccc(Cl)cc3-c3ccncc3)cccc2c1` [Example 28], for which the half-maximal inhibitory concentration (IC50) at Nav 1.7 [1] was 50 nM; on Nav 1.5 (setting [3]), over 30000 nM.

On to `NC(=O)c1cc(C(F)(F)F)ccc1-c1cccc2cc(S(=O)(=O)Nc3ncns3)ccc12` [Example 32], for which the IC50 at Nav 1.7 [1] was 170 nM; on Nav 1.5 (setting [3]), over 30000 nM.

For the compound `O=S(=O)(Nc1ncns1)c1ccc2c(-c3ccc(OC(F)(F)F)cc3Cl)cccc2c1` [Example 4], the 50% inhibitory concentration (IC50) came to 900 nM on Nav 1.7 [1] and 10900 nM on Nav 1.5 (setting [3]).

As to `O=S(=O)(Nc1ncns1)c1ccc2c(-c3ccc(C(F)(F)F)cc3-c3ccncc3)cccc2c1` [Example 2], the IC50 at Nav 1.7 [1] is 30 nM; on Nav 1.5 (setting [3]) it was over 30000 nM.

With `O=S(=O)(Nc1ncns1)c1ccc2c(-c3ccc(Cl)cc3C(F)(F)F)cccc2c1` [Example 39], the results for the IC50 at Nav 1.7 [1] and on Nav 1.5 (setting [3]) were 1540 nM and 7770 nM, respectively.

With `O=S(=O)(Nc1nccs1)c1ccc2c(-c3ccc(C(F)(F)F)cc3Cl)nccc2c1` [Example 51, 1-(2-CHLORO-4-(TRIFLUOROMETHYL)PHENYL)-N-(THIAZOL-2-YL)ISOQUINOLINE-6-SULFONAMIDE], the figures for the IC50 on Nav 1.7 [1] and on Nav 1.5 (setting [3]) were 110 nM and over 30000 nM, respectively.

Consider `N#CCOc1cc(C(F)(F)F)ccc1-c1nccc2cc(S(=O)(=O)Nc3nccs3)ccc12` [Example 374, 1-(2-(CYANOMETHOXY)-4-(TRIFLUOROMETHYL)PHENYL)-N-(THIAZOL-2-YL)ISOQUINOLINE-6-SULFONAMIDE], for which the IC50 is 309 nM on Nav 1.7 [2] and over 30000 nM at Nav 1.5 (setting [4]).

As for `COc1ccccc1-c1nccc2cc(S(=O)(=O)Nc3nccs3)ccc12` [Example 406, 1-(2-METHOXYPHENYL)-N-(THIAZOL-2-YL)ISOQUINOLINE-6-SULFONAMIDE], the IC50 on Nav 1.7 [2] is 456 nM; on Nav 1.5 (setting [4]), over 30000 nM.

For `COc1ccc(-c2ccc(-c3nccc4cc(S(=O)(=O)Nc5ccncn5)ccc34)c(OC)c2)cc1` [Example 468, 1-(3,4′-DIMETHOXY-[1,1′-BIPHENYL]-4-YL)-N-(PYRIMIDIN-4-YL)ISOQUINOLINE-6-SULFONAMIDE], the half-inhibitory concentration (IC50) is 359 nM on Nav 1.7 [2] and over 30000 nM at Nav 1.5 (setting [4]).

On to `COc1nc(-c2cccc(F)c2)c(Cl)cc1-c1nccc2cc(S(=O)(=O)Nc3nncs3)ccc12` [Example 498, 1-(5-CHLORO-6-(3-FLUOROPHENYL)-2-METHOXYPYRIDIN-3-YL)-N-(1,3,4-THIADIAZOL-2-YL)ISOQUINOLINE-6-SULFONAMIDE], for which the values for the IC50 at Nav 1.7 [2] and at Nav 1.5 (setting [4]) were 760 nM and over 30000 nM, respectively.

With `COc1cc(Cl)c(C#N)cc1-c1nccc2cc(S(=O)(=O)Nc3ncns3)ccc12` [Example 336, 1-(4-CHLORO-5-CYANO-2-METHOXYPHENYL)-N-(1,2,4-THIADIAZOL-5-YL)ISOQUINOLINE-6-SULFONAMIDE], the 50% inhibitory concentration (IC50) was 156 nM at Nav 1.7 [2] and over 30000 nM at Nav 1.5 (setting [4]).

Take `N#CCOc1ccccc1-c1nccc2cc(S(=O)(=O)Nc3nccs3)ccc12` [Example 375, 1-(2-(CYANOMETHOXY)PHENYL)-N-(THIAZOL-2-YL)ISOQUINOLINE-6-SULFONAMIDE 2,2,2-TRIFLUOROACETATE]: the IC50 at Nav 1.7 [2] is 544 nM; on Nav 1.5 (setting [4]) it was over 30000 nM.

For the compound `COc1cc(Cl)ccc1-c1ncnc2cc(S(=O)(=O)Nc3ncns3)ccc12` [Example 524, 4-(4-CHLORO-2-METHOXYPHENYL)-N-(1,2,4-THIADIAZOL-5-YL)QUINAZOLINE-7-SULFONAMIDE], the IC50 at Nav 1.7 [2] was 100 nM; at Nav 1.5 (setting [4]) it was over 30000 nM.

On to `COc1cc(C(F)(F)F)ccc1-c1cnnc2cc(S(=O)(=O)Nc3nccs3)ccc12` [Example 259, 4-(2-METHOXY-4-(TRIFLUOROMETHYL)PHENYL)-N-(THIAZOL-2-YL)CINNOLINE-7-SULFONAMIDE], for which the IC50 is 320 nM at Nav 1.7 [2] and over 30000 nM at Nav 1.5 (setting [4]).

`COc1cc(C#N)ccc1-c1cccc2cc(S(=O)(=O)Nc3ncns3)ccc12` [Example 330]: the IC50 at Nav 1.7 [2] was 118 nM; on Nav 1.5 (setting [4]) it was over 30000 nM.

With `COc1cc(Oc2cccc(F)c2)ccc1-c1nccc2cc(S(=O)(=O)Nc3ccncn3)ccc12` [Example 464, 1-(4-(3-FLUOROPHENOXY)-2-METHOXYPHENYL)-N-(PYRIMIDIN-4-YL)ISOQUINOLINE-6-SULFONAMIDE], the IC50 at Nav 1.7 [2] was 380 nM; at Nav 1.5 (setting [4]) it was over 30000 nM.

As to `COc1cc(-c2cc(F)cc(F)c2)ccc1-c1nccc2cc(S(=O)(=O)Nc3ccncn3)ccc12` [Example 449, 1-(3′,5′-DIFLUORO-3-METHOXY-[1,1′-BIPHENYL]-4-YL)-N-(PYRIMIDIN-4-YL)ISOQUINOLINE-6-SULFONAMIDE], the IC50 is 34 nM at Nav 1.7 [2] and over 30000 nM at Nav 1.5 (setting [4]).

With `COc1cc(C(F)F)c(F)cc1-c1ncnc2cc(S(=O)(=O)Nc3nccs3)ccc12` [Example 512, 4-(4-(DIFLUOROMETHYL)-5-FLUORO-2-METHOXYPHENYL)-N-(THIAZOL-2-YL)QUINAZOLINE-7-SULFONAMIDE], the figures for the IC50 at Nav 1.7 [2] and on Nav 1.5 (setting [4]) were 234 nM and over 30000 nM, respectively.

Regarding `COc1cc(-c2cc(C)cc(Cl)c2)ccc1-c1nccc2cc(S(=O)(=O)Nc3ccncn3)ccc12` [Example 495, 1-(3′-CHLORO-3-METHOXY-5′-METHYL-[1,1′-BIPHENYL]-4-YL)-N-(PYRIMIDIN-4-YL)ISOQUINOLINE-6-SULFONAMIDE], the IC50 stood at 95 nM on Nav 1.7 [2] and 19100 nM on Nav 1.5 (setting [4]).

As for `N#CCOc1ccccc1-c1ncc(F)c2cc(S(=O)(=O)Nc3nccs3)ccc12` [Example 398, 1-(2-(CYANOMETHOXY)PHENYL)-4-FLUORO-N-(THIAZOL-2-YL)ISOQUINOLINE-6-SULFONAMIDE], the figures for the IC50 at Nav 1.7 [2] and on Nav 1.5 (setting [4]) were 197 nM and over 30000 nM, respectively.

Take `COc1cc(-c2cccc(C(F)(F)F)c2)ccc1-c1ncnc2cc(S(=O)(=O)Nc3ccncn3)ccc12` [Example 528, 4-(3-METHOXY-3′-(TRIFLUOROMETHYL)-[1,1′-BIPHENYL]-4-YL)-N-(PYRIMIDIN-4-YL)QUINAZOLINE-7-SULFONAMIDE]: the IC50 at Nav 1.7 [2] was 58 nM; on Nav 1.5 (setting [4]), over 30000 nM.

Consider `COc1cc(-c2ccc(Cl)c(F)c2)ccc1-c1nccc2cc(S(=O)(=O)Nc3ccncn3)ccc12` [Example 492, 1-(4′-CHLORO-3′-FLUORO-3-METHOXY-[1,1′-BIPHENYL]-4-YL)-N-(PYRIMIDIN-4-YL)ISOQUINOLINE-6-SULFONAMIDE], for which the figures for the IC50 at Nav 1.7 [2] and on Nav 1.5 (setting [4]) were 69 nM and over 30000 nM, respectively.

Regarding `COc1cc(F)ccc1-c1ncc(F)c2cc(S(=O)(=O)Nc3ncns3)ccc12` [Example 394, 4-FLUORO-1-(4-FLUORO-2-METHOXYPHENYL)-N-(1,2,4-THIADIAZOL-5-YL)ISOQUINOLINE-6-SULFONAMIDE], the IC50 at Nav 1.7 [2] is 338 nM; on Nav 1.5 (setting [4]), over 30000 nM.

Take `COc1cc(-c2cccc(F)c2)c(Cl)cc1-c1nccc2cc(S(=O)(=O)Nc3ccon3)ccc12` [Example 335, 1-(2-CHLORO-3′-FLUORO-5-METHOXY-[1,1′-BIPHENYL]-4-YL)-N-(ISOXAZOL-3-YL)ISOQUINOLINE-6-SULFONAMIDE]: the values for the IC50 at Nav 1.7 [2] and at Nav 1.5 (setting [4]) were 52 nM and over 30000 nM, respectively.

In the case of `COc1cc(OCC(C)C)ccc1-c1nccc2cc(S(=O)(=O)Nc3ccncn3)ccc12` [Example 361, 1-(4-ISOBUTOXY-2-METHOXYPHENYL)-N-(PYRIMIDIN-4-YL)ISOQUINOLINE-6-SULFONAMIDE], the concentration for half-maximal inhibition (IC50) was 463 nM at Nav 1.7 [2] and over 30000 nM on Nav 1.5 (setting [4]).

In the case of `N#CCOc1cc(F)ccc1-c1nccc2cc(S(=O)(=O)Nc3nccs3)ccc12` [Example 192, 1-(2-(CYANOMETHOXY)-4-FLUOROPHENYL)-N-(THIAZOL-2-YL)ISOQUINOLINE-6-SULFONAMIDE], the concentration for half-maximal inhibition (IC50) at Nav 1.7 [2] is 330 nM; at Nav 1.5 (setting [4]) it was over 30000 nM.

The IC50 is the concentration needed to halve the response being measured.
